Work on C[C@@H]1O[C@@H](OC[C@H]2O[C@@H](Oc3c(-c4ccc(O)c(O)c4)oc4cc(O)cc(O)c4c3=O)[C@H](O)[C@@H](O)[C@@H]2O)[C@H](O)[C@H](O)[C@H]1O yielded a solubility (mole fraction) (in ethanol, 273.2 K) of 0.00348, a solubility (mole fraction) (in ethanol, 283.2 K) of 0.00372 and a solubility (mole fraction) (in ethanol, 293.2 K) of 0.00427. The solubility (mole fraction) (in ethanol, 303.2 K) was 0.00515, the solubility (mole fraction) (in ethanol, 313.2 K) was 0.00592 and the solubility (mole fraction) (in ethanol, 323.2 K) was 0.00653. It also gave a solubility (mole fraction) (in water, 273.2 K) of 2.97e-06, a solubility (mole fraction) (in water, 283.2 K) of 5.29e-06 and a solubility (mole fraction) (in water, 293.2 K) of 5.87e-06. The solubility (mole fraction) (in water, 303.2 K) was 8.22e-06, the solubility (mole fraction) (in water, 313.2 K) was 1.02e-05 and the solubility (mole fraction) (in water, 323.2 K) was 1.42e-05.

From BigSolDB 2.1
